According to patent US20110066238A1, “RECONSTRUCTED CORNEA AND MUCOUS MEMBRANE” (BASF BEUTY CARE SOLUTIONS FRANCE S.A.S, priority 2008, published 2011):

Assays:
Format in all cases: cell-based
[1] = tested on: reconstructed human hemi-corneas; test: Cell viability (MTT) of reconstructed human hemi-corneas treated with SDS; conditions: beyond 0.5% SDS, 10 minutes immersion
IL-6 = test: Secretion of IL-6 by reconstructed human hemi-corneas treated with SDS (membrane ARRAY); conditions: culture supernatant after at least 24 hours of reculture following SDS treatment; irritant effect without cell mortality
Experimental: (§1) After treating with SDS, the reconstructed human hemi-corneas are rinsed with culture medium, for example, DMEM, and then recultured for at least a further 24 hours in the culture medium described for the preparation of the reconstructed human hemi-corneas (Example 5).
The culture supernatants of the reconstructed human hemi-corneas are then recovered in order to assay the secreted pro-inflammatory cytokines. The culture supernatants optionally may be frozen before use.
The inventors evaluated the secretion of IL-6, for example by means of a “membrane ARRAY” method as a function of the cell viability previously studied in Example 6.

[2] = tested on: reconstructed human hemi-corneas; test: Cellular recovery of reconstructed human hemi-corneas treated with SDS, histological analysis
Experimental: The reconstructed human hemi-corneas are treated for 10 minutes by complete immersion, with increasing solutions of SDS (0.5%, 1%, 2% and 3%). After the treatment, the reconstructed human hemi-corneas are rinsed with culture medium, for example DMEM, and then fixed, for example with formaldehyde, and then included in paraffin. Paraffin slices are then prepared by microtome, preferentially at a thickness of 5 μm, and then stained, for example, with haematoxylin, phloxin and saffron. […] At and above 0.5% SDS, a histological effect on the reconstructed human hemi-corneas is observed.
as §1, with “treatment” for “treating”, “5). The histological studies are performed as described in Example 5.” for “5).”

[3] = tested on: reconstructed human hemi-corneas; test: Histological study of reconstructed human hemi-corneas treated with SDS; conditions: 10 minutes, complete immersion; 0.5%, 1%, 2%, 3% SDS tested
Experimental: A cell suspension preferentially containing 2×10^5 corneal epithelial cells/500 μl of culture medium is seeded on the surface of the reconstructed human corneal stroma. The culture medium used is preferentially composed of DMEM/HAM F12 (2/1), 10% foetal calf serum (FCS), EGF (10 ng/ml), insulin (5 μg/ml), adenine (0.18 mM), hydrocortisone (0.4 μg/ml), cholera toxin (0.1 nM), triiodothyronine (2 nM), glutamine (4 mM), ascorbic acid (1 mM), penicillin G (100 IU/ml), gentamicin (20 μg/ml) and amphotericin B (1 μg/ml). The corneal epithelial cells are cultured by immersion for 7 days on the equivalent corneal stroma and with the medium described above.
The cultures are then raised to the air/liquid interface and then cultured for a further 14 days with a culture medium preferentially composed of DMEM, hydrocortisone (0.4 μg/ml), insulin (5 μg/ml), ascorbic acid (1 mM), penicillin G (100 IU/ml), gentamicin (20 μg/ml) and amphotericin B (1 μg/ml).
The reconstructed human hemi-corneas are treated for 10 minutes by complete immersion, with increasing solutions of SDS (0.5%, 1%, 2% and 3%). After the treatment, the reconstructed human hemi-corneas are rinsed with culture medium, for example DMEM, and then fixed, for example with formaldehyde, and then included in paraffin. […]

[4] = tested on: reconstructed human hemi-corneas; test: Cellular recovery of reconstructed human hemi-corneas treated with SDS, cell viability
Experimental: After culturing for 7, 14 or 28 days, the reconstructed human corneal stromas are analysed in the following manner: • the cultures are incubated for 2 hours at 37° C. in 2 ml of MTT (methyl thiazolyl tetrazolium) at 1 mg/ml. The negative control corresponds to the biomaterial not containing keratocytes; • the cultures are then recovered, and then incubated in 4 ml of DMSO (dimethyl sulfoxide) for 4 hours with stirring; • a fraction of the culture supernatant (200 μl) of each sample is recovered and then analysed by spectrophotocolorimetry (550 nm). The optical density read is directly proportional to the number of living cells. The biomaterial that has a porosity of between 40 and 50 μm is suitable for the proliferation of keratocytes. Indeed, the cellular proliferation kinetics of the keratocytes is proportional to the culturing time of the reconstructed human corneal stromas. Furthermore, irrespective of the conditions of manufacture of our biomaterial [1.6%, 1.4% and 1.25% dry matter], as described in Example 2, the keratocytes have a similar degree of proliferation.
After treatment with SDS, the reconstructed human hemi-corneas are rinsed with culture medium, for example, DMEM, and then recultured for at least a further 24 hours in the culture medium described for the preparation of the reconstructed human hemi-corneas (Example 5). […]

In the case of `CCCCCCCCCCCCOS(=O)(=O)[O-].[Na+]` [SDS, sodium dodecyl sulfate], the cell viability [1] was “less than 75%”, the “secretion of IL-6” value (IL-6) was “strong secretion of IL-6” and the “epithelial organization after cellular recovery (histology)” value ([2]; 0.5% and 1% SDS, after 48 hours of cellular recovery) was “epithelial organization close to that of untreated hemi-corneas”. The “epithelial organization after cellular recovery (histology)” value ([2]; 2% and 3% SDS, after recovery) was “irreversible epithelial damage”, the “SDS concentration at which a histological effect is observed” value [3] was at least 0.5% and the “cell viability after recovery (T=48 h) versus after treatment (T=0 h)” value ([4]; 0.5% SDS) was “significantly equivalent”. The “cell viability after recovery (T=48 h) versus after treatment (T=0 h)” value ([4]; 1%, 2% and 3% SDS) was “significantly lower cell viability”.
